The values below come from ChEMBL document CHEMBL1201862, “PubChem BioAssay data set” (2004).

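Test compounds were applied to cells in 96-well plates for 48 hours at 5 doses. At the GI50, growth is halved.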 The source made the active and inactive calls. Rule as the data show it: active = GI50 up to about 1.1 µM and inactive = higher.

Among the test systems are KM12; A498; HOP-92; 786-0; SK-MEL-28; K562; OVCAR-5; NCI-H460; UO-31; OVCAR-4; A549; NCI/ADR-RES; ACHN; U-251; CAKI-1; COLO 205; SF-295; HCT-15; OVCAR-3; SK-OV-3.
Test in all cases: inhibition of tumour cell growth, NCI panel, 48 h

Consider `CCNc1cc2c(cc1O)CC[C@@H]1[C@@H]2CC[C@]2(C)[C@@H](O)CC[C@@H]12`, for which the GI50 is 9.04 µM (inactive) in the experiment on KM12; 1.7 µM (inactive) in the experiment on A498; 10.3 µM (inactive) in the experiment with HOP-92; 9.91 µM (inactive) in the experiment on 786-0; 4.59 µM (inactive) in the experiment on SK-MEL-28; 0.711 µM (active) in the experiment on K562. Further, the GI50 in the experiment with OVCAR-5 is 20.3 µM (inactive); in the experiment with NCI-H460, 0.489 µM (active); with UO-31, 6.75 µM (inactive); in the experiment on OVCAR-4, 8.26 µM (inactive); in the experiment with A549, 2.32 µM (inactive); in the experiment on NCI/ADR-RES, 1.04 µM (active). For the same compound, the GI50 in the experiment with ACHN was 8.83 µM (inactive); in the experiment on U-251, 1.61 µM (inactive); in the experiment on CAKI-1, 13.5 µM (inactive); in the experiment on COLO 205 it was 14.4 µM (inactive); with SF-295 it was 0.912 µM (active); in the experiment on HCT-15 it was 0.942 µM.

As for `CCOC(=O)C1=C(C)N(Cc2ccc(Cl)cc2Cl)C2(O)C=CC(=O)C3C(=O)N(c4ccccc4)C(=O)C132` (configuration not stated), the GI50 in the experiment with KM12 was 1.71 µM (inactive); with A498 it was 4.57 µM (inactive); in the experiment on HOP-92, 1.78 µM (inactive); with 786-0, 3.24 µM (inactive); with SK-MEL-28, 1.59 µM (inactive); in the experiment with K562, 0.659 µM (active). For the same compound, the GI50 was 3.17 µM (inactive) with OVCAR-5; 2.1 µM (inactive) in the experiment with NCI-H460; 2.07 µM (inactive) in the experiment with UO-31; 1.51 µM (inactive) in the experiment with OVCAR-4; 1.37 µM (inactive) in the experiment with OVCAR-3; 2.11 µM (inactive) in the experiment with A549. In addition, the GI50 in the experiment on NCI/ADR-RES is 2.29 µM (inactive); with ACHN, 1.71 µM (inactive); in the experiment with U-251 it was 1.67 µM (inactive); in the experiment on CAKI-1 it was 3.02 µM (inactive); with COLO 205 it was 1.7 µM (inactive); with SF-295, 2.88 µM (inactive). Besides, the GI50 in the experiment on HCT-15 is 1.52 µM.

For `COc1ccc(/C=C2\NC(=S)N(CN3CCCCC3)C2=O)cc1`, the GI50 in the experiment with KM12 is 73.1 µM (inactive); in the experiment with A498, 51.9 µM (inactive); in the experiment on SK-OV-3, > 100 µM (inactive); in the experiment with HOP-92 it was 76 µM (inactive); in the experiment on 786-0, 36.6 µM (inactive); in the experiment on SK-MEL-28, > 100 µM (inactive). Also, the GI50 in the experiment with K562 is 34.5 µM (inactive); in the experiment with OVCAR-5, > 100 µM (inactive); with UO-31, 37.1 µM (inactive); in the experiment with OVCAR-4 it was 20 µM (inactive); with OVCAR-3, 71.6 µM (inactive); with A549 it was 72.1 µM (inactive). For the same compound, the GI50 is 26.9 µM (inactive) with NCI/ADR-RES; 33.9 µM (inactive) in the experiment with ACHN; 61.7 µM (inactive) with U-251; 35.2 µM (inactive) with COLO 205; 69.7 µM (inactive) in the experiment with SF-295; 24.6 µM in the experiment with HCT-15.

In the case of `COc1cc(OC)nc(NC(=O)NS(=O)(=O)c2cccc3ncn(C)c(=O)c23)n1`, the GI50 with A498, in the experiment with SK-OV-3, with HOP-92, in the experiment with 786-0, with K562 and in the experiment with OVCAR-5 was > 100 µM (inactive) in each case. The GI50 in the experiment with UO-31, with OVCAR-4, in the experiment on OVCAR-3, in the experiment with A549, in the experiment with NCI/ADR-RES and with ACHN was > 100 µM (inactive) throughout. Moreover, the GI50 in the experiment with U-251 was > 100 µM (inactive); in the experiment with CAKI-1, > 100 µM (inactive); with COLO 205 it was > 100 µM (inactive); in the experiment on SF-295, > 100 µM (inactive); in the experiment with HCT-15, above 100 µM.

Regarding `Oc1cc(-c2ccc(Cl)cc2)cn2c1nc1ccccc12`, the GI50 in the experiment on KM12 was 5.47 µM (inactive); with A498 it was > 100 µM (inactive); in the experiment with SK-OV-3, > 100 µM (inactive); with HOP-92, > 100 µM (inactive); with 786-0, 25.8 µM (inactive); with SK-MEL-28 it was > 100 µM (inactive). The GI50 in the experiment with K562 was 2.3 µM (inactive); with NCI-H460, 5.21 µM (inactive); in the experiment with UO-31 it was > 100 µM (inactive); in the experiment on OVCAR-4, > 100 µM (inactive); with OVCAR-3, > 100 µM (inactive); in the experiment on NCI/ADR-RES it was > 100 µM (inactive). Further, the GI50 was 6.59 µM (inactive) with U-251; > 100 µM (inactive) in the experiment on CAKI-1; > 100 µM (inactive) with COLO 205; > 100 µM (inactive) in the experiment with SF-295; above 100 µM in the experiment with HCT-15.

As to `N#C/N=C1/c2ccccc2/C(=N/C#N)c2cc(CO)ccc21`, the GI50 with KM12 is 31.8 µM (inactive); in the experiment with A498, 23.5 µM (inactive); with HOP-92, 24.8 µM (inactive); with 786-0, 36.8 µM (inactive); in the experiment with SK-MEL-28, 43 µM (inactive); with K562 it was 23.3 µM (inactive). Besides, the GI50 in the experiment with OVCAR-5 is 50.9 µM (inactive); with NCI-H460, 12.5 µM (inactive); in the experiment on UO-31, 30.2 µM (inactive); with OVCAR-4 it was 48.1 µM (inactive); in the experiment with OVCAR-3, 26.9 µM (inactive); in the experiment with A549, 20.9 µM (inactive). The GI50 in the experiment with NCI/ADR-RES was 28.5 µM (inactive); in the experiment with ACHN, 24.7 µM (inactive); with U-251, 34.4 µM (inactive); in the experiment with CAKI-1, 25.3 µM (inactive); with SF-295, 32.6 µM (inactive); in the experiment with HCT-15, 27.2 µM.

On to `Cc1ccc(Nc2n[nH]c(=S)s2)cc1`, for which the GI50 was 69 µM (inactive) with KM12; > 100 µM (inactive) in the experiment on A498; > 100 µM (inactive) with SK-OV-3; > 100 µM (inactive) in the experiment on HOP-92; > 100 µM (inactive) in the experiment with 786-0; > 100 µM (inactive) in the experiment with SK-MEL-28. The GI50 was > 100 µM (inactive) in the experiment with K562; > 100 µM (inactive) in the experiment on OVCAR-5; > 100 µM (inactive) with NCI-H460; 87.9 µM (inactive) in the experiment with UO-31; > 100 µM (inactive) in the experiment on OVCAR-3; > 100 µM (inactive) in the experiment on A549. Besides, the GI50 in the experiment on NCI/ADR-RES, in the experiment on ACHN, in the experiment on U-251, in the experiment on CAKI-1, in the experiment with COLO 205 and with SF-295 was > 100 µM (inactive) in each case. Besides, the GI50 with HCT-15 was above 100 µM.

`CC(C)CCCC(C)[C@H]1CCC2[C@@H]3CCC4Cc5nc6c(nc5C[C@]4(C)C3CC[C@@]21C)CC1CC[C@@H]2C(CC[C@@]3(C)C2CC[C@@H]3C(C)CCCC(C)C)[C@@]1(C)C6` (some centres not stated): the GI50 with KM12, in the experiment on A498, in the experiment with SK-OV-3, in the experiment on HOP-92, in the experiment on 786-0 and with SK-MEL-28 was > 100 µM (inactive) throughout. In addition, the GI50 with K562, in the experiment with OVCAR-5, with NCI-H460, in the experiment with UO-31, in the experiment with OVCAR-4 and with OVCAR-3 was > 100 µM (inactive) in each case. Besides, the GI50 with A549, in the experiment with NCI/ADR-RES, in the experiment on ACHN, with U-251, in the experiment with COLO 205 and in the experiment on SF-295 was > 100 µM (inactive) each time. In the experiment on HCT-15, this compound displayed a GI50 above 100 µM.

As to `COc1ccc(-n2c(N)c(C#N)[nH]c2=O)cc1`, the GI50 in the experiment on KM12, in the experiment on A498, with SK-OV-3, with HOP-92, in the experiment with 786-0 and with SK-MEL-28 was > 10 µM (inactive) each time. Besides, the GI50 in the experiment with K562 was > 10 µM (inactive); with OVCAR-5, 3.5 µM (inactive); with NCI-H460, > 10 µM (inactive); in the experiment with UO-31 it was > 10 µM (inactive); in the experiment on OVCAR-4 it was > 10 µM (inactive); in the experiment with OVCAR-3, > 10 µM (inactive). The GI50 in the experiment with A549 was > 10 µM (inactive); with NCI/ADR-RES, > 10 µM (inactive); in the experiment with ACHN, > 10 µM (inactive); in the experiment on U-251 it was > 10 µM (inactive); in the experiment with COLO 205, > 10 µM (inactive); with SF-295 it was 2.77 µM (inactive). Moreover, in the experiment on HCT-15, the GI50 was above 10 µM.

Take `Cc1cn(CC2=NCCN2)c(=O)[nH]c1=O`: the GI50 in the experiment on KM12, with A498, in the experiment on SK-OV-3, with HOP-92, in the experiment with 786-0 and with SK-MEL-28 was > 100 µM (inactive) throughout. The GI50 in the experiment with K562, with OVCAR-5, in the experiment with NCI-H460, with UO-31, with OVCAR-4 and in the experiment with A549 was > 100 µM (inactive) throughout. Further, the GI50 in the experiment on NCI/ADR-RES, in the experiment on ACHN, in the experiment with U-251, in the experiment with CAKI-1, in the experiment with COLO 205 and with SF-295 was > 100 µM (inactive) in each case. For the same compound, in the experiment on HCT-15, the GI50 was above 100 µM.

In the case of `Cc1ccc(C(=O)Nc2ccc(CP(=O)(O)O)cc2)cc1NC(=O)c1cccc(N)c1`, the GI50 with KM12, in the experiment on A498, with SK-OV-3, in the experiment on HOP-92, with 786-0 and with SK-MEL-28 was > 100 µM (inactive) each time. Further, the GI50 with K562, with OVCAR-5, in the experiment on UO-31, in the experiment with OVCAR-4, with OVCAR-3 and with A549 was > 100 µM (inactive) each time. Besides, the GI50 in the experiment with NCI/ADR-RES, in the experiment with ACHN, in the experiment with U-251, in the experiment on CAKI-1, with COLO 205 and with SF-295 was > 100 µM (inactive) in each case. The GI50 with HCT-15 is above 100 µM.
